The values that follow come from ChEMBL document CHEMBL3124777, “Synthesis and biological evaluation of thiazoline derivatives as new antimicrobial and anticancer agents” (Eur J Med Chem, 2014).

≈ marks a conversion by molar mass, not a printed value. A value given as a limit tells only on which side of the number the result lay.

The first assay has as its system C6. Put plainly: Cytotoxicity against rat C6 cells after 24 hrs by MTT assay. The format is functional, cell-based. The note with it: C6, 24 h. (Formazan colour is commonly taken as a measure of viable cells.)
Take `O=C(CSc1ncccn1)N/N=c1/scc(-c2ccc(F)cc2)n1-c1ccccc1`: the IC50 (commonly the point on the concentration scale where inhibition reaches its midpoint) was found to be 110 µg/mL (≈ 251 µM).

In the case of `Cn1nnnc1SCC(=O)N/N=c1/scc(-c2ccccc2)n1-c1ccccc1`, the IC50 stood at 67.7 µg/mL (≈ 160 µM).

The next assay relates to NIH3T3. Put plainly: Cytotoxicity against mouse NIH/3T3 cells after 24 hrs by MTT assay. The following applies: NIH3T3, 24 h. The format is cell-based.
Consider `O=C(CSc1ncccn1)N/N=c1/scc(-c2ccc(F)cc2)n1-c1ccccc1`, for which the IC50 was greater than 500 µg/mL.

Regarding `Cn1nnnc1SCC(=O)N/N=c1/scc(-c2ccccc2)n1-c1ccccc1`, half-maximal inhibition (IC50) was put at 173 µg/mL (≈ 409 µM).

A further assay concerns C6. Put plainly: Cytotoxicity against rat C6 cells assessed as cell viability at 200 ug/ml after 24 hrs by MTT assay relative to control. In kind it is functional. The following applies: C6, 24 h, read-out: Activity.
With `O=C(CSc1ncccn1)N/N=c1/scc(-c2ccc(F)cc2)n1-c1ccccc1`, the viability at 200 µg/mL amounted to 32.2%.

Regarding `Cn1nnnc1SCC(=O)N/N=c1/scc(-c2ccccc2)n1-c1ccccc1`, the viability at 200 µg/mL amounted to 26.8%.

The subject of a further assay is C6. Put plainly: Cytotoxicity against rat C6 cells assessed as cell viability at 100 ug/ml after 24 hrs by MTT assay relative to control. The note with it: C6, 24 h, read-out: Activity. In kind it is functional.
With `O=C(CSc1ncccn1)N/N=c1/scc(-c2ccc(F)cc2)n1-c1ccccc1`, the viability at 100 µg/mL was determined as 53.4%.

For `Cn1nnnc1SCC(=O)N/N=c1/scc(-c2ccccc2)n1-c1ccccc1`, the viability at 100 µg/mL was determined as 38.8%.

The subject of a further assay is C6. Put plainly: Cytotoxicity against rat C6 cells assessed as cell viability at 50 ug/ml after 24 hrs by MTT assay relative to control. The format is functional. The note with it: C6, 24 h, read-out: Activity.
With `O=C(CSc1ncccn1)N/N=c1/scc(-c2ccc(F)cc2)n1-c1ccccc1`, the viability at 50 µg/mL came out at 55.5%.

For `Cn1nnnc1SCC(=O)N/N=c1/scc(-c2ccccc2)n1-c1ccccc1`, the viability at 50 µg/mL worked out at 56.2%.

A further assay concerns C6. Put plainly: Cytotoxicity against rat C6 cells assessed as cell viability at 25 ug/ml after 24 hrs by MTT assay relative to control. In kind it is functional. The following applies: C6, 24 h, read-out: Activity.
Consider `O=C(CSc1ncccn1)N/N=c1/scc(-c2ccc(F)cc2)n1-c1ccccc1`, for which the viability at 25 µg/mL is 63.9%.

As to `Cn1nnnc1SCC(=O)N/N=c1/scc(-c2ccccc2)n1-c1ccccc1`, the viability at 25 µg/mL was 64.2%.

The next assay relates to C6. Put plainly: Cytotoxicity against rat C6 cells assessed as cell viability at 12 ug/ml after 24 hrs by MTT assay relative to control. The format is functional. The following applies: C6, 24 h, read-out: Activity.
For the molecule `O=C(CSc1ncccn1)N/N=c1/scc(-c2ccc(F)cc2)n1-c1ccccc1`, the viability at 12 µg/mL was 77.4%.

For `Cn1nnnc1SCC(=O)N/N=c1/scc(-c2ccccc2)n1-c1ccccc1`, the viability at 12 µg/mL is 80.7%.

The next assay deals with C6. Put plainly: Cytotoxicity against rat C6 cells assessed as cell viability at 6 ug/ml after 24 hrs by MTT assay relative to control. In kind it is functional. The note with it: C6, 24 h, read-out: Activity.
Take `O=C(CSc1ncccn1)N/N=c1/scc(-c2ccc(F)cc2)n1-c1ccccc1`: the viability at 6 µg/mL stood at 84%.

Take `Cn1nnnc1SCC(=O)N/N=c1/scc(-c2ccccc2)n1-c1ccccc1`: the viability at 6 µg/mL is 85.2%.

The subject of another assay is Candida albicans. Put plainly: Antimicrobial activity against Candida albicans ATCC 22019 after 18 to 24 hrs by microbroth dilution method.
Conditions: not given
In kind it is functional. Background: Dilution methods test growth across graded concentrations, often in twofold steps.
As for `O=C(CSc1ncccn1)N/N=c1/scc(-c2ccc(F)cc2)n1-c1ccccc1`, the MIC (usually the smallest concentration in the dilution series that meets the test's criterion for growth inhibition) was found to be 250 µg/mL (≈ 571 µM).

In turn, `Cn1nnnc1SCC(=O)N/N=c1/scc(-c2ccccc2)n1-c1ccccc1` returned an MIC of 250 µg/mL (≈ 590 µM).

In the next assay the test system is Fusarium culmorum. Put plainly: Antimicrobial activity against wild type Fusarium culmorum after 48 to 72 hrs by microbroth dilution method. The format is functional.
Conditions: not given
`O=C(CSc1ncccn1)N/N=c1/scc(-c2ccc(F)cc2)n1-c1ccccc1` had an MIC of 250 µg/mL (≈ 571 µM).

The molecule `Cn1nnnc1SCC(=O)N/N=c1/scc(-c2ccccc2)n1-c1ccccc1` gave an MIC of 250 µg/mL (≈ 590 µM).

The subject of another assay is Fusarium verticillioides. Put plainly: Antimicrobial activity against Fusarium moniliforme NRRL 1866 after 48 to 72 hrs by microbroth dilution method. The format is functional.
Conditions: not given
`O=C(CSc1ncccn1)N/N=c1/scc(-c2ccc(F)cc2)n1-c1ccccc1` returned an MIC of 250 µg/mL (≈ 571 µM).

As to `Cn1nnnc1SCC(=O)N/N=c1/scc(-c2ccccc2)n1-c1ccccc1`, the MIC is 250 µg/mL (≈ 590 µM).

In the next assay the test system is Fusarium solani. Put plainly: Antimicrobial activity against Fusarium solani NRRL 13414 after 48 to 72 hrs by microbroth dilution method. In kind it is functional.
Conditions: not given
The molecule `O=C(CSc1ncccn1)N/N=c1/scc(-c2ccc(F)cc2)n1-c1ccccc1` displayed an MIC of 250 µg/mL (≈ 571 µM).

As to `Cn1nnnc1SCC(=O)N/N=c1/scc(-c2ccccc2)n1-c1ccccc1`, the MIC turned out to be 250 µg/mL (≈ 590 µM).

The next assay deals with Aspergillus ochraceus. Put plainly: Antimicrobial activity against Aspergillus ochraceus NRRL 3174 after 48 to 72 hrs by microbroth dilution method. In kind it is functional.
Conditions: not given
As to `O=C(CSc1ncccn1)N/N=c1/scc(-c2ccc(F)cc2)n1-c1ccccc1`, 250 µg/mL (≈ 571 µM) was the least that counted as inhibitory (MIC).

Molecule `Cn1nnnc1SCC(=O)N/N=c1/scc(-c2ccccc2)n1-c1ccccc1` had an MIC of 250 µg/mL (≈ 590 µM).

The next assay concerns Trichoderma harzianum. Put plainly: Antimicrobial activity against Trichoderma harzianum NRRL 20565 after 48 to 72 hrs by microbroth dilution method. The format is functional.
Conditions: not given
For `O=C(CSc1ncccn1)N/N=c1/scc(-c2ccc(F)cc2)n1-c1ccccc1`, the minimal inhibitory concentration (MIC) is 250 µg/mL (≈ 571 µM).

`Cn1nnnc1SCC(=O)N/N=c1/scc(-c2ccccc2)n1-c1ccccc1` returned an MIC of 125 µg/mL (≈ 295 µM).

The test system of the next assay is Penicillium chrysogenum. Put plainly: Antimicrobial activity against Penicillium chrysogenum NRRL 1951 after 48 to 72 hrs by microbroth dilution method. In kind it is functional.
Conditions: not given
In the case of `O=C(CSc1ncccn1)N/N=c1/scc(-c2ccc(F)cc2)n1-c1ccccc1`, the lowest concentration to inhibit growth (MIC) was 250 µg/mL (≈ 571 µM).

`Cn1nnnc1SCC(=O)N/N=c1/scc(-c2ccccc2)n1-c1ccccc1` yielded an MIC of 250 µg/mL (≈ 590 µM).

The test system of the next assay is Aspergillus parasiticus. Put plainly: Antimicrobial activity against Aspergillus parasiticus NRRL 465 after 48 to 72 hrs by microbroth dilution method. In kind it is functional.
Conditions: not given
On to `O=C(CSc1ncccn1)N/N=c1/scc(-c2ccc(F)cc2)n1-c1ccccc1`, for which 250 µg/mL (≈ 571 µM) was the least that counted as inhibitory (MIC).

`Cn1nnnc1SCC(=O)N/N=c1/scc(-c2ccccc2)n1-c1ccccc1` returned an MIC of 250 µg/mL (≈ 590 µM).

A further assay relates to Bacillus subtilis. Put plainly: Antimicrobial activity against Bacillus subtilis NRS-744 after 18 to 24 hrs by microbroth dilution method. The format is functional.
Conditions: not given
Molecule `O=C(CSc1ncccn1)N/N=c1/scc(-c2ccc(F)cc2)n1-c1ccccc1` gave an MIC of 500 µg/mL (≈ 1140 µM).

With `Cn1nnnc1SCC(=O)N/N=c1/scc(-c2ccccc2)n1-c1ccccc1`, the MIC turned out to be 250 µg/mL (≈ 590 µM).

The subject of a further assay is Micrococcus luteus. Put plainly: Antimicrobial activity against Micrococcus luteus NRLL B-4375 after 18 to 24 hrs by microbroth dilution method. In kind it is functional.
Conditions: not given
For the molecule `O=C(CSc1ncccn1)N/N=c1/scc(-c2ccc(F)cc2)n1-c1ccccc1`, the MIC was 250 µg/mL (≈ 571 µM).

In turn, `Cn1nnnc1SCC(=O)N/N=c1/scc(-c2ccccc2)n1-c1ccccc1` yielded a minimal inhibitory concentration (MIC) of 250 µg/mL (≈ 590 µM).

A further assay concerns Pseudomonas aeruginosa. Put plainly: Antimicrobial activity against Pseudomonas aeruginosa […] after 18 to 24 hrs by microbroth dilution method.
Conditions: not given
The format is functional.
In turn, `O=C(CSc1ncccn1)N/N=c1/scc(-c2ccc(F)cc2)n1-c1ccccc1` registered an MIC of 250 µg/mL (≈ 571 µM).

The molecule `Cn1nnnc1SCC(=O)N/N=c1/scc(-c2ccccc2)n1-c1ccccc1` yielded an MIC of 250 µg/mL (≈ 590 µM).

The subject of a further assay is Escherichia coli. Put plainly: Antimicrobial activity against Escherichia coli ATCC 25922 after 18 to 24 hrs by microbroth dilution method. In kind it is functional.
Conditions: not given
For the molecule `O=C(CSc1ncccn1)N/N=c1/scc(-c2ccc(F)cc2)n1-c1ccccc1`, the MIC is 250 µg/mL (≈ 571 µM).

The molecule `Cn1nnnc1SCC(=O)N/N=c1/scc(-c2ccccc2)n1-c1ccccc1` returned an MIC of 250 µg/mL (≈ 590 µM).

The next assay relates to Listeria monocytogenes. Put plainly: Antimicrobial activity against Listeria monocytogenes ATCC 7644 after 18 to 24 hrs by microbroth dilution method. In kind it is functional.
Conditions: not given
In turn, `O=C(CSc1ncccn1)N/N=c1/scc(-c2ccc(F)cc2)n1-c1ccccc1` yielded an MIC of 250 µg/mL (≈ 571 µM).

As for `Cn1nnnc1SCC(=O)N/N=c1/scc(-c2ccccc2)n1-c1ccccc1`, the MIC came to 250 µg/mL (≈ 590 µM).

The subject of another assay is Staphylococcus aureus. Put plainly: Antimicrobial activity against Staphylococcus aureus NRRL B-767 after 18 to 24 hrs by microbroth dilution method. In kind it is functional.
Conditions: not given
As for `O=C(CSc1ncccn1)N/N=c1/scc(-c2ccc(F)cc2)n1-c1ccccc1`, 500 µg/mL (≈ 1140 µM) was the least that counted as inhibitory (MIC).

In turn, `Cn1nnnc1SCC(=O)N/N=c1/scc(-c2ccccc2)n1-c1ccccc1` yielded an MIC of 250 µg/mL (≈ 590 µM).
